Results published in paper PMC6364417, “Kinase inhibitor library screening identifies synergistic drug combinations effective in sensitive and resistant melanoma cells” (Journal of Experimental & Clinical Cancer Research : CR, 2019).
Where two headings read alike, the source gives them in different places.

Key:
Assay in all cases: Kinase inhibitor library screening, PrestoBlue cell viability, 1 or 10 μM, 72 h
[1] = tested on: 501Mel-XP cells (Vemurafenib-resistant)
Protocol: (§1) After 72 h of treatment, cell viability was assessed using the PrestoBlue Cell Viability Reagent (ThermoFisher Scientific). Measurements were performed with the CLARIOstar Monochromator microplate reader (BMG Labtech).
(§2) Kinase inhibitor library screening. […] Each cell line was treated in its sensitive form (parental), and also as 2 resistant derivatives, which were made resistant to either Vemurafenib (XP) or Dabrafenib (GP). Drugs were added at 2 different concentrations, 1 and 10 μM, for 72 h and cell viability was assessed using the PrestoBlue Cell Viability assay. Results are depicted as % viability compared to untreated cells. Each cell line was analyzed at least in duplicate. […] (XLSX 95 kb)

[2] = tested on: IGR37-XP cells (Vemurafenib-resistant)
Protocol: as §1, §2

[3] = tested on: IGR37-GP cells (Dabrafenib-resistant); conditions: for cell viability (kinase inhibitor library screening): IGR37 GP
Protocol: as §1, §2

[4] = tested on: 501Mel cells (parental)
Protocol: as §1, §2

[5] = tested on: 501Mel-GP cells (Dabrafenib-resistant); conditions: 501Mel GP
Protocol: as §1, §2

[6] = tested on: IGR37 cells (parental)
Protocol: as §1, §2

[7] = tested on: A375-XP cells (Vemurafenib-resistant)
Protocol: as §1, §2

[8] = tested on: A375 cells (parental)
Protocol: as §1, §2

[9] = tested on: A375-GP cells (Dabrafenib-resistant)
Protocol: as §1, §2

Cc1[nH]nc2ccc(-c3cncc(OC[C@@H](N)Cc4ccccc4)c3)cc12 [A-674563]
cell viability (kinase inhibitor library screening) ([1]; 501Mel XP, 1μΜ, 72 h): 56.5%
cell viability (kinase inhibitor library screening) ([1]; 501Mel XP, 10μΜ, 72 h): 0.5%
cell viability (kinase inhibitor library screening) ([2]; IGR37 XP, 1μΜ, 72 h): 78.0%
cell viability (kinase inhibitor library screening) ([2]; IGR37 XP, 10μΜ, 72 h): 2.1%
cell viability (kinase inhibitor library screening) ([3]; 1μΜ, 72 h): 99.0%
cell viability (kinase inhibitor library screening) ([3]; 10μΜ, 72 h): 2.8%
cell viability (kinase inhibitor library screening) ([4]; 501Mel Parental, 1μΜ, 72 h): 73.1%
cell viability (kinase inhibitor library screening) ([4]; 501Mel Parental, 10μΜ, 72 h): 1.4%
cell viability (kinase inhibitor library screening) ([5]; 1μΜ, 72 h): 64.5%
cell viability (kinase inhibitor library screening) ([5]; 10μΜ, 72 h): 0.638%
cell viability (kinase inhibitor library screening) ([6]; IGR37 Parental, 1μΜ, 72 h): 96.7%
cell viability (kinase inhibitor library screening) ([6]; IGR37 Parental, 10μΜ, 72 h): 1.9%
cell viability (kinase inhibitor library screening) ([7]; A375 XP, 1μΜ, 72 h): 54.3%
cell viability (kinase inhibitor library screening) ([7]; A375 XP, 10μΜ, 72 h): 6.6%
cell viability (kinase inhibitor library screening) ([8]; A375 Parental, 10μΜ, 72 h): 4.6%
cell viability (kinase inhibitor library screening) ([8]; A375 Parental, 1μΜ, 72 h): 82.1%
cell viability (kinase inhibitor library screening) ([9]; A375 GP, 1μΜ, 72 h): 63.4%
cell viability (kinase inhibitor library screening) ([9]; A375 GP, 10μΜ, 72 h): 2.7%

CNC(=O)c1ccc(C)c(-n2c(C)cc(OCc3ccc(F)cc3F)c(Br)c2=O)c1 [PH-797804]
Cell viability in kinase inhibitor library screening, 501Mel XP, 1μΜ ([1]; 501Mel XP, 1μΜ, 72 h, in %): 90.4
Cell viability in kinase inhibitor library screening, 501Mel XP, 10μΜ ([1]; 501Mel XP, 10μΜ, 72 h, in %): 84.3
Cell viability in kinase inhibitor library screening, IGR37 XP, 10μΜ ([2]; IGR37 XP, 10μΜ, 72 h): 74.4%
Cell viability in kinase inhibitor library screening, IGR37 XP, 1μΜ ([2]; IGR37 XP, 1μΜ, 72 h, in %): 104.2
Cell viability in kinase inhibitor library screening, 501Mel Parental, 1μΜ ([4]; 501Mel Parental, 1μΜ, 72 h, in %): 98.2
Cell viability in kinase inhibitor library screening, 501Mel GP, 1μΜ ([5]; 1μΜ, 72 h, in %): 106.6
Cell viability in kinase inhibitor library screening, 501Mel GP, 10μΜ ([5]; 10μΜ, 72 h, in %): 91.3
Cell viability in kinase inhibitor library screening, IGR37 Parental, 1μΜ ([6]; IGR37 Parental, 1μΜ, 72 h, in %): 103.0
Cell viability in kinase inhibitor library screening, A375 XP, 10μΜ ([7]; A375 XP, 10μΜ, 72 h): 95.8
Cell viability in kinase inhibitor library screening, A375 Parental, 10μΜ ([8]; A375 Parental, 10μΜ, 72 h): 84.4
Cell viability in kinase inhibitor library screening, A375 Parental, 1μΜ ([8]; A375 Parental, 1μΜ, 72 h): 109.2
Cell viability in kinase inhibitor library screening, A375 GP, 1μΜ ([9]; A375 GP, 1μΜ, 72 h): 103.3
Cell viability in kinase inhibitor library screening, A375 GP, 10μΜ ([9]; A375 GP, 10μΜ, 72 h): 87.3

C[S+]([O-])c1ccc(-c2nc(-c3ccncc3)c(-c3ccc(F)cc3)[nH]2)cc1 (stereo not shown) [SB 203580]
Cell viability in kinase inhibitor library screening, 501Mel XP, 10μΜ ([1]; in %): 92.5
Cell viability in kinase inhibitor library screening, IGR37 XP, 10μΜ [2]: 62.9%
Cell viability in kinase inhibitor library screening, IGR37 XP, 1μΜ ([2]; in %): 103.3
Cell viability in kinase inhibitor library screening, IGR37 GP, 10μΜ [3]: 86.6%
Cell viability in kinase inhibitor library screening, IGR37 GP, 1μΜ ([3]; in %): 105.2
Cell viability in kinase inhibitor library screening, 501Mel Parental, 1μΜ ([4]; in %): 108.7
Cell viability in kinase inhibitor library screening, 501Mel Parental, 10μΜ ([4]; in %): 95.5
Cell viability in kinase inhibitor library screening, IGR37 Parental, 1μΜ ([6]; in %): 116.2
Cell viability in kinase inhibitor library screening, IGR37 Parental, 10μΜ ([6]; in %): 92.9
Cell viability in kinase inhibitor library screening, A375 XP, 1μΜ [7]: 111.6
Cell viability in kinase inhibitor library screening, A375 XP, 10μΜ [7]: 103.1
Cell viability in kinase inhibitor library screening, A375 Parental, 1μΜ [8]: 112.0
Cell viability in kinase inhibitor library screening, A375 Parental, 10μΜ [8]: 83.0
Cell viability in kinase inhibitor library screening, A375 GP, 1μΜ [9]: 93.4
Cell viability in kinase inhibitor library screening, A375 GP, 10μΜ [9]: 98.4

NC(=O)c1ccc(-c2nc(-c3ccc4c(c3)OCO4)c(-c3ccccn3)[nH]2)cc1 [SB 431542]
cell viability (kinase inhibitor library screening) ([1]; 501Mel XP, 1μΜ, in %): 93.8
cell viability (kinase inhibitor library screening) ([1]; 501Mel XP, 10μΜ, in %): 79.9
cell viability (kinase inhibitor library screening) ([3]; 1μΜ, in %): 100.4
cell viability (kinase inhibitor library screening) ([3]; 10μΜ, in %): 87.9
cell viability (kinase inhibitor library screening) ([4]; 501Mel Parental, 1μΜ, in %): 98.3
cell viability (kinase inhibitor library screening) ([5]; 1μΜ, in %): 102.6
cell viability (kinase inhibitor library screening) ([5]; 10μΜ, in %): 85.7
cell viability (kinase inhibitor library screening) ([6]; IGR37 Parental, 10μΜ, in %): 97.8
cell viability (kinase inhibitor library screening) ([7]; A375 XP, 1μΜ, in %): 109.0
cell viability (kinase inhibitor library screening) ([7]; A375 XP, 10μΜ, in %): 106.6
cell viability (kinase inhibitor library screening) ([8]; A375 Parental, 1μΜ, in %): 106.2
cell viability (kinase inhibitor library screening) ([9]; A375 GP, 1μΜ, in %): 100.0
cell viability (kinase inhibitor library screening) ([9]; A375 GP, 10μΜ, in %): 98.5

COc1cc2nccc(Oc3ccc(NC(=O)Nc4cc(C)on4)c(Cl)c3)c2cc1OC [Tivozanib (AV-951)]
cell viability (kinase inhibitor library screening) ([1]; 501Mel XP, 1μΜ, in %): 97.3
cell viability (kinase inhibitor library screening) ([1]; 501Mel XP, 10μΜ, in %): 64.2
cell viability (kinase inhibitor library screening) ([2]; IGR37 XP, 10μΜ, in %): 55.2
cell viability (kinase inhibitor library screening) ([4]; 501Mel Parental, 10μΜ, in %): 74.1
cell viability (kinase inhibitor library screening) ([5]; 1μΜ, in %): 103.1
cell viability (kinase inhibitor library screening) ([5]; 10μΜ, in %): 58.3
cell viability (kinase inhibitor library screening) ([6]; IGR37 Parental, 1μΜ, in %): 97.2
cell viability (kinase inhibitor library screening) ([6]; IGR37 Parental, 10μΜ, in %): 83.4
cell viability (kinase inhibitor library screening) ([7]; A375 XP, 1μΜ, in %): 105.9
cell viability (kinase inhibitor library screening) ([7]; A375 XP, 10μΜ, in %): 77.7
cell viability (kinase inhibitor library screening) ([8]; A375 Parental, 1μΜ, in %): 104.6
cell viability (kinase inhibitor library screening) ([8]; A375 Parental, 10μΜ, in %): 60.4
cell viability (kinase inhibitor library screening) ([9]; A375 GP, 1μΜ, in %): 99.1
cell viability (kinase inhibitor library screening) ([9]; A375 GP, 10μΜ, in %): 54.4
